row,SMILES,melting point [°C]
1,COC(=O)c1c(Cl)c([N+](=O)[O-])cc([N+](=O)[O-])c1Cl,97 to 99
2,O=C(c1ccccc1)c1ncccn1,79 to 81
3,O=C1CCC(=O)N1c1ncc(Br)s1,150 to 152
4,N#Cc1ccccc1/C=C/C(=O)O,255 to 257
5,O=C(O)CCSc1ccnc2cc(Cl)ccc12,209 to 211
6,O=C1NCCSC1Cc1ccccc1 (centres undefined),107 to 109
7,CCCc1noc2nc(-c3cccnc3)cc(C(=O)O)c12,259 to 261
8,C=CCNc1nc(C(=O)OCC)cs1,84 to 86
9,Cc1ccc(C=O)nc1,39 to 41
10,CCN(CC)S(=O)(=O)c1ccc(N)c(N)c1,124 to 126
11,Nc1ccc(N2C(=O)c3ccccc3C2=O)c(Cl)c1,204 to 206
12,COc1ccccc1S(N)(=O)=O,169 to 171
13,CCOC(C)C(N)=S (centres undefined),54 to 56
14,NC(=S)N1CCN(c2ccc(Cl)cc2)CC1,176 to 178
15,O=S(=O)(c1ccc2oc(S)nc2c1)N1CCOCC1,251 to 253
16,Cc1cccc(-c2noc(S)n2)c1,119 to 121
17,NC(=O)C1CCCN(C(=O)CCl)C1 (centres undefined),124 to 126
18,O=C(O)C1CC1C(=O)N1CCN(c2ccccc2)CC1 (centres undefined),155 to 157
19,O=c1[nH]c2ccc(NCc3ccccc3)cc2[nH]1,242 to 244
20,O=C(O)c1ccc(COc2ccc(Cl)cc2)cc1,201 to 203
21,COc1cc(CNC(=O)CCl)cc(OC)c1OC,106 to 108
22,O=Cc1cccc(OCCCC(=O)O)c1,58 to 60
23,CC(C)(C)NC(=O)c1ccc(N)cc1,124 to 126
24,Cc1ccccc1CNc1ccc2[nH]c(=O)[nH]c2c1,204 to 206

row,SMILES,melting point [°C]
1,NC(NO)=C1C=CC=NC1=O,176 to 178
2,CCCCc1nc2ccccc2[nH]1,149 to 151
3,Cn1c(N)nc2c(F)cccc21,163 to 165
4,O=C(c1ccccc1)c1nccs1,40 to 42
5,Cc1cc(S(N)(=O)=O)cc(N)c1C,159 to 161
6,O=C(O)c1c2c(nc3ccccc13)C(=Cc1cccc(Cl)c1Cl)CCC2,294 to 296
7,Cc1cc(C(=O)O)c2ccc(F)cc2n1,267 to 269
8,CCN1CC(C(=O)O)CC1=O (centres undefined),92 to 94
9,CCCCOc1ccc(C=CC(=O)O)cc1OCC,109 to 111
10,OCc1cn(-c2ccc(Cl)c(Cl)c2)nn1,142 to 144
11,COC(=O)C1=NN(c2ccccc2)C(c2ccccc2)C1 (centres undefined),125 to 127
12,O=S(=O)(Cl)Cc1cc(-c2ccc(F)cc2)no1,108 to 110
13,CCCCN(c1ccccc1)S(=O)(=O)c1cccc(C(=O)O)c1,161 to 163
14,O=C(CCl)NC(=O)NCc1ccco1,128 to 130
15,Cc1oncc1C(=O)Nc1ccc(CC(=O)O)cc1,208 to 210
16,O=C1Cc2cc(Br)c(Cl)cc2N1,219 to 221
17,Clc1nc(CN2CCOCC2)nc2scc(-c3cccs3)c12,105 to 107
18,CCOC(=O)c1[nH]c2c(c1C)C(=O)CC(C)(C)C2,159 to 163
19,CN(C(=O)CCl)C1(C#N)CCCCC1,86 to 90
20,OCc1nc2cccnc2[nH]1,210 to 212
21,O=C(NCc1cccnc1)OCC(F)(F)F,45 to 47
22,O=C(O)c1csc(-c2ccccc2F)n1,159 to 161
23,CCN(CC)C(=O)Cn1cccc(C(=O)O)c1=O,114 to 116
24,Cc1cc(C)c(NC(=O)CCl)c(C)c1,153 to 157

row,SMILES,melting point [°C]
1,Cc1ccccc1/C=C/c1cc(C(=O)O)c2cc(Br)ccc2n1,289 to 291
2,COc1ccc(NS(=O)(=O)c2ccc(O)c(N)c2)cc1,213 to 215
3,NC(=O)c1ccc(CSc2ccc(C(=O)O)cc2)cc1,304 to 306
4,O=C(O)c1cc([N+](=O)[O-])ccc1Sc1nnnn1-c1ccccc1,218 to 220
5,CS(=O)(=O)c1cccc(Cl)c1C(N)=O,200 to 202
6,COc1cccc(-n2ccnc2S)c1,149 to 151
7,Cc1[nH]c(-c2cccnc2)nc(=NN)c1C,194 to 196
8,Cc1ccc(-c2cc(C(=O)O)on2)cc1,204 to 206
9,O=C(CCl)NCC1(c2ccccc2)CCCCC1,54 to 56
10,CCCCCCn1cc(S(=O)(=O)Cl)c(=O)[nH]c1=O,157 to 159
11,CNC(=S)NCCN1CCOCC1,103 to 105
12,Cc1cc(S(N)(=O)=O)ccc1[N+](=O)[O-],131 to 133
13,NS(=O)(=O)c1cccc(O)c1,159 to 161
14,C#CCNC(=O)Nc1cccc([N+](=O)[O-])c1,173 to 175
15,Cc1ccc(Br)c(C(=O)O)c1,139 to 141
16,O=C(O)CCNC(=O)NC1CCCCC1,163 to 165
17,COc1ccc(C(=O)CC(C)(C)C(=O)O)cc1,166 to 168
18,CN(C)C(=O)c1c[nH]c2ccccc12,234 to 236
19,COc1ccccc1-n1cnnc1S,204 to 206
20,Cc1cc(C(=O)CCl)c(C)n1-c1cccc(F)c1,90 to 94
21,NS(=O)(=O)N1CCCc2ccccc21,125 to 127
22,COc1ccccc1-c1nnc(S)n1CCc1ccccc1,87 to 89
23,CCC(CC)C(N)=S,55 to 57
24,CS(=O)(=O)c1nnc(N)[nH]1,243 to 245

row,SMILES,melting point [°C]
1,O=S(=O)(c1ccc(Cl)cc1)N1CCNCC1,99 to 103
2,O=C(CCl)NCC(c1ccc(Cl)cc1Cl)c1c[nH]c2ccccc12 (centres undefined),73 to 75
3,O=C1NC(=O)c2cc(Cl)c(Cl)cc21,217 to 219
4,Cc1ccc(SCCNC(=O)CCl)cc1,114 to 116
5,NS(=O)(=O)c1ccc(OCC(=O)O)c(F)c1,177 to 179
6,COC(=O)c1ccc(CBr)s1,36 to 38
7,CNS(=O)(=O)c1ccc(Br)c(C)c1,77 to 79
8,Nc1ccc(F)c(NC(=O)CCN2CCOCC2)c1,119 to 121
9,O=S(=O)(Cl)c1cc(Br)ccc1Cl,64 to 66
10,COc1ccc(CC(N)=NO)cc1OC,135 to 137
11,Cc1cc(=O)c(C(=O)O)n[nH]1,193 to 195
12,CC(C)(C)c1cc(=O)[nH]c(C(C)(C)C)n1,163 to 165
13,Cn1[nH]c(=O)nc1S,216 to 220
14,Nc1cc(Br)c(F)cc1Cl,71 to 73
15,NC(=O)c1ccc(C(F)(F)F)nc1,185 to 187
16,Brc1cnc2nccn2c1,201 to 203
17,Fc1ccc(CCNC2=NCCS2)cc1,106 to 108
18,Cc1cc(O)nc(CCl)n1,147 to 149
19,COc1cccc(CC(C(=O)O)n2nnnc2C)c1 (centres undefined),125 to 127
20,Cc1ccccc1CC(=O)NN,129 to 131
21,Nc1ncccc1OCc1cccc(Cl)c1,84 to 86
22,Cc1nc(C(=O)O)c2ccccn12,187 to 189
23,COc1cc(/C=C/C(=O)O)ccc1OCc1c(C)noc1C,110 to 112
24,N#CCc1ccc(Oc2ccc(N)cn2)cc1,67 to 69

row,SMILES,melting point [°C]
1,Cc1ccn2c(C=O)cnc2c1,80 to 82
2,CC(=O)c1ccc(N2CCCC2)cc1O,120 to 122
3,CCCCc1ccc(NS(=O)(=O)c2ccc(N)cc2OC)cc1,170 to 172
4,COc1ccc(Br)c(S(N)(=O)=O)c1,119 to 121
5,COC(=O)c1occc1CC#N,62 to 64
6,Cc1cnn(-c2ccc(S(N)(=O)=O)cc2F)c1,189 to 191
7,Nc1ccccc1C(=O)Nc1ccc(Cl)cc1,44 to 45
8,C=Cc1nc2sc3c(c2c(=O)[nH]1)CCCC3,209 to 211
9,NC(=O)C1CCCC1,173 to 175
10,CN(Cc1ccccc1)S(=O)(=O)c1ccc(N)cc1,127 to 131
11,O=C(c1cccnc1)c1cccc(Cl)c1,47 to 49
12,OCCSc1ccnc2cc(Cl)ccc12,111 to 113
13,Cc1nc(-c2ccsc2)ccc1C(=O)O,174 to 176
14,COc1ccc(N2C(=O)CC(=O)NC2=S)cc1,241 to 243
15,O=C(NO)c1ccccc1C(F)(F)F,157 to 159
16,Cn1cc(C(=O)NC2CCNCC2)cn1,204 to 206
17,c1cc(-c2nnc[nH]2)ccn1,225 to 227
18,CN(C)S(=O)(=O)c1cc(Br)cnc1N,173 to 175
19,NCC1(C(N)=O)CCCC1,61 to 63
20,CS(=O)(=O)c1nc2ccccc2s1,86 to 89
21,Cc1nc(-c2ccc(F)cc2)cs1,74 to 76
22,CS(=O)(=O)c1cc([N+](=O)[O-])c(Cl)s1,148 to 150
23,O=C1C(Br)CCN1c1ccccc1 (centres undefined),99 to 101
24,CSC(=CC(=O)c1ccccc1)SC,92 to 94

row,SMILES,melting point [°C]
1,C=CCc1cc(C(=O)OC)cc(OC)c1O,76 to 78
2,CCN1C(=N)C(C)(C)N(C)C1=O,88 to 90
3,O=C(CCCl)Nc1ccc(N2CCOCC2)cc1,192 to 194
4,Cc1cccc(NC(=O)CSCC(=O)O)c1,200 to 206
5,Nn1cncn1,64 to 66
6,O=C(O)C(=O)NCCCc1ccccc1,120 to 122
7,CC(=O)Nc1cc(S(=O)(=O)Cl)ccc1C,145 to 147
8,O=C(O)c1ccnc(-n2cncn2)c1,314 to 316
9,Cc1ccc2ncccc2c1Br,44 to 46
10,COc1ccc(OC)c(CNCCO)c1,91 to 93
11,O=C(c1cnc(Cl)c(Cl)c1)N1CCCCC1,78 to 80
12,NC(=O)Nc1ccc(S(=O)(=O)F)cc1,177 to 179
13,NC(=O)NCCCCC(=O)O,178 to 180
14,Nc1cccc(-c2n[nH]c3c2CCCC3)c1,159 to 161
15,CCOC(=O)c1nc(-c2ccccc2)oc1CBr,94 to 96
16,O=C(O)C1CCN(c2ccc(Cl)nn2)CC1,186 to 188
17,O=C(O)Cc1ccc(NS(=O)(=O)c2ccc(F)cc2)cc1,180 to 182
18,COC(=O)CN1Cc2ccccc2C1=O,114 to 116
19,Nc1ccc(S(N)(=O)=O)c(F)c1,152 to 154
20,Cc1nnc(-c2cccc(CN)c2)[nH]1,199 to 201
21,O=Cc1cc(-c2ccccc2)cs1,63 to 65
22,NNC(=O)c1ccc(Cl)cc1O,209 to 211
23,O=C1CCc2cc(C(=O)c3c(F)cccc3F)ccc2N1,248 to 250
24,O=C(O)CCCNC(=O)NC1CCCCC1,153 to 155

# Reference: a melting point compilation (Tetko et al.)
